Test results from US9340530B2, “Preparation and use of bicyclic himbacine derivatives as PAR-1 receptor antagonists” (Merck, Sharp & Dohme Corp., priority 2012, dated 2016).

Target: PAR1 (Homo sapiens (Human), UniProt P25116)
Experiment: Par-1 FLIPR assay (calcium, HEK 293 cells, PAR1 activating peptide)
Assay type: cell-based
Conditions: PAR1 selective receptor-activating peptide at 80% activation
Protocol: HEK 293 Cells were grown in media containing DMEM, 10% FBS pen/strep/L-Glutamine and non-essential amino acids. The cells were plated in 384-well PDL coated plates at 12000 cells/well and incubated overnight at 37° C./5% CO2. Media was then removed from the cells, which were then incubated with buffer (Hank's containing HEPES and Chaps) containing FLIPR calcium-5 dye, made with buffer containing probenecid, for 60 minutes at 37° C. Varying concentrations of compound in a final concentration of 5% DMSO were then added to the cells and incubated at 25° C. for 30 minutes. […] The FLIPR reads at an excitation wavelength of 480 nm and an emission wavelength of 535 nm, and performs 60 scans over a 1-2 min reading time. The data were analyzed by taking the peak signal over a portion of the range of the 60 scans and dividing this signal by the minimum signal for that same range.

Sequence of PAR1 (P25116 22-425): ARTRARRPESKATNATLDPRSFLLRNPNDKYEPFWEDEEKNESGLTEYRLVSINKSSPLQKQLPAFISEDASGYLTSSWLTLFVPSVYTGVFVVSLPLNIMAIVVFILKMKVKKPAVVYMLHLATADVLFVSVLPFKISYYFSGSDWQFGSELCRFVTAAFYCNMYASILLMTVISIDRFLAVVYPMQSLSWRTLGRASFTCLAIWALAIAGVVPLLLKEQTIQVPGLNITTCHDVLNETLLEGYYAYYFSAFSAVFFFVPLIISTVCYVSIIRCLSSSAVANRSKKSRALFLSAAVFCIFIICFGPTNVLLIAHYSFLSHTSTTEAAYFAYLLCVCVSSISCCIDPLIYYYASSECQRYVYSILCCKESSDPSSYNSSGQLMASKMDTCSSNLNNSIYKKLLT

| SMILES | IC50 [nM] |
| --- | --- |
| C[C@H]1OC(=O)[C@]2(C(O)c3ncco3)CC(F)(F)[C@@H](C)[C@H](/C=C/c3ccc(-c4ccccc4C#N)cn3)[C@H]12 (single isomer, unassigned) [Example 23a] | 3.1 |
| C[C@H]1OC(=O)[C@]2(C(O)c3ncco3)CC(F)(F)[C@@H](C)[C@H](/C=C/c3ccc(-c4ccccc4C#N)cn3)[C@H]12 (single isomer, unassigned) [Example 23b] | 1.2 |
| C[C@H]1OC(=O)[C@@H]2CC(F)(F)[C@@H](C)[C@H](/C=C/c3ccc(-c4ccccc4C#N)cn3)[C@H]12 [Example 1] | 1.6 |
| C[C@H]1OC(=O)C2CC(F)(F)[C@@H](C)[C@H](/C=C/c3ccc(-c4ccccc4Cl)cn3)C21 (stereo partly drawn) [Example 4] | 2.7 |
| C[C@H]1OC(=O)C2CC(F)(F)[C@@H](C)[C@H](/C=C/c3ccc(-c4ccccc4OC(F)(F)F)cn3)C21 (stereo partly drawn) [Example 5] | 4.7 |
| C[C@H]1OC(=O)[C@]2(N)CC(F)(F)[C@@H](C)[C@H](/C=C/c3ccc(-c4ccccc4C#N)cn3)[C@H]12 [Example 7] | 7.2 |
| C[C@H]1OC(=O)[C@]2(O)CC(F)(F)[C@@H](C)[C@H](/C=C/c3ccc(-c4ccccc4C#N)cn3)[C@H]12 [Example 8] | 2 |
| C[C@H]1OC(=O)[C@]2(O)CC(F)(F)[C@@H](C)[C@H](/C=C/c3ccc(-c4ccccc4OC(F)(F)F)cn3)[C@H]12 [Example 9] | 4.5 |
| COC(=O)[C@@]12CC(F)(F)[C@@H](C)[C@H](/C=C/c3ccc(-c4cccc(F)c4)cn3)[C@@H]1[C@@H](C)OC2=O [Example 11] | 3.4 |
| C[C@H]1OC(=O)[C@]2(C(=O)O)CC(F)(F)[C@@H](C)[C@H](/C=C/c3ccc(-c4cccc(F)c4)cn3)[C@H]12 [Example 12] | 10.9 |
| C[C@H]1OC(=O)[C@]2(CO)CC(F)(F)[C@@H](C)[C@H](/C=C/c3ccc(-c4ccccc4C#N)cn3)[C@H]12 [Example 15] | 2.7 |
| C[C@H]1OC(=O)[C@]2(C(=O)NC3CCC3)CC(F)(F)[C@@H](C)[C@H](/C=C/c3ccc(-c4ccccc4C#N)cn3)[C@H]12 [Example 18] | 3.3 |
| C[C@H]1OC(=O)[C@]2(C(O)c3ccccn3)CC(F)(F)[C@@H](C)[C@H](/C=C/c3ccc(-c4ccccc4C#N)cn3)[C@H]12 (stereo partly drawn) [Example 19] | 3 |
| CC1[C@H](/C=C/c2ccc(-c3ccccc3C#N)cn2)C2[C@@H](C)OC(=O)[C@]2(C(O)c2cscn2)CC1(F)F (stereo partly drawn) [Example 20a] | 0.9 |
| C[C@H]1OC(=O)[C@]2(C(O)c3cscn3)CC(F)(F)[C@@H](C)[C@H](/C=C/c3ccc(-c4ccccc4C#N)cn3)[C@H]12 (stereo partly drawn) [Example 20b] | 1.2 |
| CC1[C@H](/C=C/c2ccc(-c3ccccc3C#N)cn2)C2[C@@H](C)OC(=O)[C@]2(C(O)c2nccs2)CC1(F)F (stereo partly drawn) [Example 21a] | 2.5 |
| C[C@H]1OC(=O)[C@]2(C(O)c3nccs3)CC(F)(F)[C@@H](C)[C@H](/C=C/c3ccc(-c4ccccc4C#N)cn3)[C@H]12 (stereo partly drawn) [Example 21b] | 1.2 |
| CC1[C@H](/C=C/c2ccc(-c3ccccc3C#N)cn2)C2[C@@H](C)OC(=O)[C@]2(C(O)c2cocn2)CC1(F)F (stereo partly drawn) [Example 22a] | 1.9 |
| C[C@H]1OC(=O)[C@]2(C(O)c3cocn3)CC(F)(F)[C@@H](C)[C@H](/C=C/c3ccc(-c4ccccc4C#N)cn3)[C@H]12 (stereo partly drawn) [Example 22b] | 2.2 |
| C[C@H]1OC(=O)[C@]2(C3(O)CNC3)CC(F)(F)[C@@H](C)[C@H](/C=C/c3ccc(-c4ccccc4C#N)cn3)[C@H]12 [Example 24] | 40.7 |
| C[C@H]1OC(=O)[C@]2(CC#N)CC(F)(F)[C@@H](C)[C@H](/C=C/c3ccc(-c4ccccc4Cl)cn3)[C@H]12 [Example 25] | 3.3 |
| C[C@H]1OC(=O)[C@]2(Cc3ncon3)CC(F)(F)[C@@H](C)[C@H](/C=C/c3ccc(-c4ccccc4Cl)cn3)[C@H]12 [Example 26] | 1.2 |
| Cc1nnc(C[C@@]23CC(F)(F)[C@@H](C)[C@H](/C=C/c4ccc(-c5ccccc5Cl)cn4)[C@@H]2[C@@H](C)OC3=O)o1 [Example 28] | 0.9 |
| C[C@H]1OC(=O)[C@]2(Cc3nnn(C)n3)CC(F)(F)[C@@H](C)[C@H](/C=C/c3ccc(-c4ccccc4Cl)cn3)C12 (stereo partly drawn) [Example 29a] | 2.1 |
| Cc1cn([C@@]23CC(F)(F)[C@@H](C)[C@H](/C=C/c4ccc(-c5ccccc5C#N)cn4)[C@@H]2[C@@H](C)OC3=O)nn1 [Example 32] | 1.4 |
| Cc1nnnn1[C@@]12CC(F)(F)[C@@H](C)[C@H](/C=C/c3ccc(-c4ccccc4C#N)cn3)[C@@H]1[C@@H](C)OC2=O [Example 34] | 6.4 |
| C[C@H]1OC(=O)[C@]2(NC3CCC3)CC(F)(F)[C@@H](C)[C@H](/C=C/c3ccc(-c4ccccc4C#N)cn3)[C@H]12 [Example 36] | 4.1 |

| SMILES | IC50 [nM] |
| --- | --- |
| C[C@H]1OC(=O)[C@]2(N(C)C)CC(F)(F)[C@@H](C)[C@H](/C=C/c3ccc(-c4ccccc4C#N)cn3)[C@H]12 [Example 37] | 5.3 |
| CC1[C@H](/C=C/c2ccc(-c3ccccc3C#N)cn2)C2[C@@H](C)OC(=O)[C@]2(NCc2cccnc2)CC1(F)F (stereo partly drawn) [Example 38] | 4.7 |
| CC1[C@H](/C=C/c2ccc(-c3ccccc3C#N)cn2)C2[C@@H](C)OC(=O)[C@]2(NCc2nccs2)CC1(F)F (stereo partly drawn) [Example 39] | 2.2 |
| CC1[C@H](/C=C/c2ccc(-c3ccccc3C#N)cn2)C2[C@@H](C)OC(=O)[C@]2(NCc2ccncc2)CC1(F)F (stereo partly drawn) [Example 40] | 3.9 |
| CC1[C@H](/C=C/c2ccc(-c3ccccc3C#N)cn2)C2[C@@H](C)OC(=O)[C@]2(NCc2ncco2)CC1(F)F (stereo partly drawn) [Example 41] | 6.5 |
| CC1[C@H](/C=C/c2ccc(-c3ccccc3C#N)cn2)C2[C@@H](C)OC(=O)[C@]2(NCc2cocn2)CC1(F)F (stereo partly drawn) [Example 42] | 2.4 |
| C[C@H]1OC(=O)[C@]2(NCc3cncs3)CC(F)(F)[C@@H](C)[C@H](/C=C/c3ccc(-c4ccccc4C#N)cn3)[C@H]12 [Example 43] | 1.3 |
| C[C@H]1OC(=O)[C@]2(NCc3cscn3)CC(F)(F)[C@@H](C)[C@H](/C=C/c3ccc(-c4ccccc4C#N)cn3)[C@H]12 [Example 44] | 1.6 |
| C[C@H]1OC(=O)[C@]2(NCc3cnccn3)CC(F)(F)[C@@H](C)[C@H](/C=C/c3ccc(-c4ccccc4C#N)cn3)[C@H]12 [Example 45] | 4.4 |
| C[C@H]1OC(=O)[C@]2(NCc3ccccn3)CC(F)(F)[C@@H](C)[C@H](/C=C/c3ccc(-c4ccccc4C#N)cn3)[C@H]12 [Example 46] | 3.1 |
| C[C@H]1OC(=O)[C@]2(NCc3cncnc3)CC(F)(F)[C@@H](C)[C@H](/C=C/c3ccc(-c4ccccc4C#N)cn3)[C@H]12 [Example 47] | 5.7 |
| C[C@H]1OC(=O)[C@]2(NCc3nccn3C)CC(F)(F)[C@@H](C)[C@H](/C=C/c3ccc(-c4ccccc4C#N)cn3)[C@H]12 [Example 48] | 3 |
| C[C@H]1OC(=O)[C@]2(NC3COC3)CC(F)(F)[C@@H](C)[C@H](/C=C/c3ccc(-c4ccccc4C#N)cn3)[C@H]12 [Example 49] | 10.4 |
| C[C@H]1OC(=O)[C@]2(NCC3CC3)CC(F)(F)[C@@H](C)[C@H](/C=C/c3ccc(-c4ccccc4C#N)cn3)[C@H]12 [Example 50] | 2.7 |
| C[C@H]1OC(=O)[C@]2(NCC(C)(C)C)CC(F)(F)[C@@H](C)[C@H](/C=C/c3ccc(-c4ccccc4C#N)cn3)[C@H]12 [Example 51] | 10.2 |
| C[C@H]1OC(=O)[C@]2(NCC(O)CCl)CC(F)(F)[C@@H](C)[C@H](/C=C/c3ccc(-c4ccccc4C#N)cn3)[C@H]12 (stereo partly drawn) [Example 52] | 4.3 |
| CC(=O)N[C@@]12CC(F)(F)[C@@H](C)[C@H](/C=C/c3ccc(-c4ccccc4C#N)cn3)[C@@H]1[C@@H](C)OC2=O [Example 53] | 26 |
| C[C@H]1OC(=O)[C@]2(NC(=O)NC3CCC3)CC(F)(F)[C@@H](C)[C@H](/C=C/c3ccc(-c4ccccc4C#N)cn3)[C@H]12 [Example 54] | 7.1 |
| C[C@H]1OC(=O)[C@]2(NC(=O)c3nccs3)CC(F)(F)[C@@H](C)[C@H](/C=C/c3ccc(-c4ccccc4C#N)cn3)[C@H]12 [Example 57] | 2.8 |
| C[C@H]1OC(=O)[C@]2(NC(=O)c3cccc(F)c3)CC(F)(F)[C@@H](C)[C@H](/C=C/c3ccc(-c4ccccc4C#N)cn3)[C@H]12 [Example 58] | 3 |
| C[C@H]1OC(=O)[C@]2(NC(=O)c3ccc(Cl)nc3)CC(F)(F)[C@@H](C)[C@H](/C=C/c3ccc(-c4ccccc4C#N)cn3)[C@H]12 [Example 59] | 3 |
| Cc1cc(C(=O)N[C@@]23CC(F)(F)[C@@H](C)[C@H](/C=C/c4ccc(-c5ccccc5C#N)cn4)[C@@H]2[C@@H](C)OC3=O)no1 [Example 60] | 3.4 |
| Cc1oncc1C(=O)N[C@@]12CC(F)(F)[C@@H](C)[C@H](/C=C/c3ccc(-c4ccccc4C#N)cn3)[C@@H]1[C@@H](C)OC2=O [Example 61] | 33.3 |
| C[C@@H]1[C@H](/C=C/c2ccc(-c3ccccc3C#N)cn2)[C@H]2[C@@H](C)OC(=O)[C@]2(NC(=O)c2ccc(F)cc2)CC1(F)F [Example 62] | 1.7 |
| C[C@H]1OC(=O)[C@]2(NC(=O)c3ccccc3)CC(F)(F)[C@@H](C)[C@H](/C=C/c3ccc(-c4ccccc4C#N)cn3)[C@H]12 [Example 63] | 2.3 |
| C[C@H]1OC(=O)[C@]2(NC(=O)c3ccc(C#N)cc3)CC(F)(F)[C@@H](C)[C@H](/C=C/c3ccc(-c4ccccc4C#N)cn3)[C@H]12 [Example 64] | 2.9 |
| C[C@H]1OC(=O)[C@]2(NC(=O)C3CC3)CC(F)(F)[C@@H](C)[C@H](/C=C/c3ccc(-c4ccccc4C#N)cn3)[C@H]12 [Example 66] | 3.5 |
